Like-named read-outs stand apart in the source and are kept apart here.
Key:
rat adjuvant arthritis = conditions: Pierce J W, et al. (1997) J. Biol. Chem. 272, 21096-21103; cited from earlier work
[1] = tested on: EMC virus-inoculated DBA/2 mice (viral myocarditis); test: Histopathology of heart (cardiac necrosis, cellular infiltration) in murine myocarditis model; format: in vivo, mouse; conditions: 30 mg/kg, hearts on days 7 and 8, score 0-4, vs control group; FIG. 5
Experimental: NF-κB inhibitor (compound of Production Example 7) was administered at 30 mg/kg body weight using the similar method as Example 3 to the mouse myocarditis model prepared in the similar manner as Example 2. The whole hearts of those mice alive on days 7 and 8 (n=10) were extripated, exsanguinated and washed with phosphate-buffered saline. Subsequently, paraffin embedded and sectioned specimens were prepared by fixing the tissue with 10% formalin. The specimens were stained with hematoxylin-eosin stain followed by examination of histopathological findings.
In cross-sectional images taken along the minor axis of the left ventricle under light microscopy, the percentage of cardiac necrosis features or cellular infiltration was classified into 0 (no damage), 1 (less than 25%), 2 (25% to less than 50%), 3 (50% to less than 75%) and 4 (75% or more), and respectively observed by two observers. The evaluations of the two observers were averaged to obtain a single evaluation. The results obtained were tested for the presence of a significant difference by analysis of variance (ANOVA) according to Bonferroni's multiple comparison method, and statistical significance was defined as p<0.05.
Test group (n=10): Administration of NF-κB inhibitor (Production Example 7) at 30 mg/kg body weight

[2] = tested on: EMC virus-inoculated DBA/2 mice (viral myocarditis); test: Survival rate in murine viral myocarditis model; format: in vivo, mouse; conditions: 10% DMSO, Kaplan-Meier p<0.05, FIG. 3
Experimental: Viral myocarditis mice were prepared using the procedure described below in accordance with a known method (Shioi T. et al. (1997) J. Mol. Cell. Cardiol., 29, 2327-2334). Variant M (acquired from the American Type Culture Collection) was used for the EMC virus for inoculation and prepared to 100 pfu/ml in Eagle's MEM medium (Nissui Pharmaceutical). Four-week-old DBA/2 male mice were divided into two groups, and intraperitoneally inoculated with EMC virus at 10 pfu/animal. Test compound was then administered intraperitoneally and daily for 14 days under the following conditions to each group starting 3 hours after inoculation.
The test compound was used after dissolving in 0.5% aqueous gum arabic solution (3 mg/ml). In the present example, the compound of Production Example 4 was used in the test as the NF-κB inhibitor.
Test group (n=10): Administration of NF-κB inhibitor (Production Example 4) at 30 mg/kg body weight Control group (n=10): 0.5% aqueous gum arabic solution
The experiment was conducted in the following three groups using the same method as Example 2 and the compound of Production Example 7 for the NF-κB inhibitor. The test compound was used after dissolving in 10% aqueous dimethylsulfoxide solution (DMSO) (test group 1: 0.3 mg/ml, test group 2: 3 mg/ml). The survival rates were tested for the presence of a significant difference according to the Kaplan-Meier method, and statistical significance was defined as p<0.05.
Test group 1 (n=21): Administration of NF-κB inhibitor (Production Example 7) at 3 mg/kg body weight
Test group 2 (n=21): Administration of NF-κB inhibitor (Production Example 7) at 30 mg/kg body weight
Four-week-old DBA/2 male mice were inoculated with EMC virus using the same method as Example 2, and the test compound was administered orally and daily for 14 days under the following conditions to each group starting 2 hours after inoculation.
The test compound was used after dissolving in 10% aqueous sulfobutylcyclodextrin solution (3 mg/ml). In the present example, the compound of Production Example 44 was used in the test as the NF-κB inhibitor.
Test group (n=20): Administration of NF-κB inhibitor (Production Example 44) at 30 mg/kg body weight

iNOS = iNOS mRNA level in heart by TaqMan PCR, murine myocarditis model; format: in vivo, mouse; conditions: 30 mg/kg intraperitoneally daily for 5 days, heart day 5, corrected with GAPDH, vs infected control; FIG. 6
Experimental: (§1) Four-week-old DBA/2 male mice were inoculated with EMC virus in the same manner as Example 3 followed by intraperitoneal administration of the compound of Production Example 7 dissolved in 10% DMSO or 10% DMSO only daily for 5 days starting 2 hours after inoculation. The whole hearts were excised from mice of the Production Example 7 compound group, 10% DMSO group and non-infected group on day 5 of viral infection, and after extracting RNA using ISOGEN (Wako Pure Chemical Industries), cDNA was obtained in accordance with the procedure of the SuperScript Preamplification System (Lifetech Oriental). The mRNA levels of TNF-α, IL-1β and iNOS were assayed by TaqMan PCR using this cDNA as templates. Detection was performed using the PRISM7700 (PE Biosystems Japan) in accordance with the protocol of the PCR assay system (PE Biosystems Japan). The following primers and TaqMan probes were used for detection.
(§2) The amount of RNA of each sample was corrected with the amount of glyceraldehyde-3-phosphate dehydrogenase (GAPDH) gene.
(§3) Infected group (administered compound of Production Example 7) (n=10) Administration of NF-κB inhibitor (Production Example 7) at 30 mg/kg body weight

IL-1β = IL-1β mRNA level in heart by TaqMan PCR, murine myocarditis model; format: in vivo, mouse; conditions: 30 mg/kg intraperitoneally daily for 5 days, heart day 5, corrected with GAPDH, vs infected control; FIG. 6
Experimental: as §1, §2, §3

TNF-α = TNF-α mRNA level in heart by TaqMan PCR, murine myocarditis model; format: in vivo, mouse; conditions: 30 mg/kg intraperitoneally daily for 5 days, heart day 5, corrected with GAPDH, vs infected control; FIG. 6
Experimental: as §1, §2, §3

NF-κB = NF-κB luciferase reporter assay in A549/NF-κBLuc cells; format: cell-based, human; conditions: Homo sapiens, A549/NF-κBLuc, luciferase activity
Experimental: Using lipofectamine (Lifetech Oriental K. K., Tokyo) according to the conventional method, human lung cancer cell line A549 cells (ATCC catalog no. CCL185), which are known to express hiNOS by cytokine stimulation, were co-transfected with pNFκB-Luc, which are plasmid controlled by a NF-κB binding consensus sequence, and pSV2neo (Clontech, U.S.A.), and then A549/NF-κBLuc, the cell that has stably introduced pNFκB-Luc, was selected by adding G418 sulfate (1 mg/ml, Lifetech Oriental K. K.) to the culture medium.
The luciferase activity was measured using the Luciferase Assay System (Promega, U.S.A.).

Row | IC50 (NF-κB; IL-1β (1 ng/ml) for 4 hours, read-out: IC50 (μM) IL-1 stimulation) [µM] | IC50 (NF-κB; TNF-α (500 ng/ml) for 4 hours, read-out: IC50 (μM) TNF stimulation) [µM] | Structure (SMILES) | effect in rat adjuvant arthritis (rat adjuvant arthritis) | cardiac necrosis [1] | cellular infiltration [1] | survival rate ([2]; 3 mg/kg intraperitoneally daily for 14 days) | survival rate ([2]; 30 mg/kg intraperitoneally daily for 14 days) | expression of iNOS at the mRNA level (iNOS) | expression of IL-1β at the mRNA level (IL-1β) | expression of TNF-α at the mRNA level (TNF-α)
1 |  |  | CC(C)(C)c1ccc(S(=O)(=O)/C=C/C#N)cc1 [BAY11-7083] | exhibit an effect |  |  |  |  |  |  | 
2 | 4 | 10 | COC1=C(OC)C(=O)C(Cc2ccc(CCC(=O)N3CCCCC3)cc2)=C(C)C1=O [Prod. Ex. 7] |  | significantly inhibited | significantly inhibited | significantly improve survival rate | significantly improve survival rate | significantly inhibited | significantly inhibited | significantly inhibited
